Assay results as given in patent US20150204851A1, “METHODS FOR IDENTIFYING DIABETES DRUGS” (Metanomics Health GmbH, priority 2012, published 2015).
Structures can show the parent of a compound that is named as a salt.

How the values were obtained:
glyoxylate [1] = conditions: cultured human cells; Berman 2005; cited from earlier work
[2] = Mehta 2009; cited from earlier work
glyoxylate [3] = test: Glyoxylate level in C. elegans after treatment, GC-MS; assay type: in vivo, Caenorhabditis elegans; conditions: for Effect on native/endogenous glyoxylate levels in C. elegans: single treatment: 50 mM metformin or 20 mM glyoxylate; for Ratio of glyoxylate concentrations in C. elegans, treatment/control: wild type on growth medium, 20 mM glyoxylate and/or 50 mM metformin, normalized to median of control
Procedure: Nematodes were harvested and extensively washed with buffer and the resulting pellet was disrupted using glass beats in combination with mechanical force. Samples were extracted with methyl-tert-butylether, methanol and extraction buffer and sonicated for 15 minutes. 50% of a mixture of water/methanol (3:1) was added, vigorously mixed and centrifuged. The polar phase was evaporated to dryness. After addition of water and a mixture of ethanol and dichlormethan, the sample was fractioned into an aqueous, polar phase and an organic, lipophilic phase. 13C-glyoxylate was added as internal standard and the extracts were derivatized in the following way: The methoximation of the carbonyl groups was carried out by reaction with methoxyamine hydrochloride (20 mg/mL in pyridine, 50 μL for 1.5 hours at 60° C.) in a tightly sealed vessel. Finally, the derivatization with 50 μL of N-methyl-N-(trimethylsilyl)-2,2,2-trifluoroacetamide (MSTFA) was carried out for 30 minutes at 60° C., again in the tightly sealed vessel. The final volume before injection into the GC was 100 μL. The GC-MS systems consist of an Agilent 6890 GC coupled to an Agilent 5973 MSD. Autosamplers were CompiPal or GCPaI from CTC.
For the analysis a usual commercial capillary separation column (30 m×0.25 mm×0.5 μm) with an arylene/poly-methyl-siloxane stationary phases was used (for example: DB-XLB, Agilent Technologies). 0.5 μL of the final volume was injected splitless and the oven temperature program was started at 70° C. and ended at 320° C. with different heating rates starting with low rates in order to achieve a sufficient chromatographic separation and number of scans for glyoxylate analysis and changing to a high heating rate after glyoxylate elution. Furthermore usual GC-MS standard conditions, for example constant flow with nominal 1 to 1.7 mL/min. and helium as the mobile phase gas and standard tune conditions were applied. Ionization was done by electron impact with 70 eV, scanning 2 characteristic mass fragments of the glyoxylate derivate and its internal standard, respectively within an appropriate time window. Scan rate was 25 scans/sec. Glyoxylate values were normalized to Total Ion Count of each sample to adjust individual deviation of sample volume. Furthermore, the data were normalized to the median of the control samples leading to ratios to control.
We tested the hypothesis that metformin suppresses glyoxylate concentration in in vivo experiments with the model worm Caenorhabditis elegans, by means of its treatment with glyoxylate and metformin separately and in combination of glyoxylate plus metformin.
The experiment included four treatment groups:
1) C. elegans, wild type (wt)—on growth medium (no treatment, control).
2) C. elegans, wt—on growth medium plus 50 mM metformin (methodology for Metformin application and doses as described in Onken & Driscoll (Onken B, Driscoll M (2010) Metformin induces a dietary restriction-like state and the oxidative stress response to extend C. elegans healthspan via AMPK, LKB1, and SKN-1. PLoS ONE 5(1): e8758.).
3) C. elegans, wt—on growth medium plus 20 mM glyoxylate.
4) C. elegans, wt—on growth medium plus 20 mM glyoxylate and 50 mM metformin.
From the GC-MS metabolite profiles, total ion count (TIC) as a measure of the absolute intensity value was calculated for each batch. Measured glyoxylate levels were then volume-normalized, using TICs.

glyoxylate [4] = test: Plasma glyoxylate in rats dosed 28 days by gavage, GC-MS metabolite profiling; assay type: in vivo, rat; conditions: for Ratio treatment/control, plasma glyoxylate: gavage once daily
Procedure: Two groups of each 5 male and female rats was dosed once daily with the indicated compounds with a different dose per group (see below) over 28 days.
Each dose group in the studies consisted of five rats per sex. Additional groups of each 15 male and 15 female animals served as controls. Before starting the treatment period, animals, which were 62-64 days old when supplied, were acclimatized to the housing and environmental conditions for 7 days. All animals of the animal population were kept under the same constant temerature (20-24±3° C.) and the same constant humidity (30-70%). The animals of the animal population were fed ad libitum. The food to be used was essentially free of chemical or microbial contaminants. Drinking water was also offered ad libitum. Accordingly, the water was free of chemical and microbial contaminants as laid down in the European Drinking Water Directive 98/83/EG. The illumination period was 12 hours light followed by 12 hours darkness (12 hours light, from 6:00 to 18:00, and 12 hours darkness, from 18:00 to 6:00). The studies were performed in an AAALAC-approved laboratory in accordance with the German Animal Welfare Act and the European Council Directive 86/609/EE. The test system was arranged according to the OECD 407 guideline for the testing of chemicals for repeated dose 28-day oral toxicity study in rodents. The test substance was dosed and administered as follows:
Metformin hydrochloride was administered by gavage (high dose group at 1 g/kg body weight, low dose group at 0.2 g/kg body weight), in drinking water containing 0.5% Carboxymethyl cellulose (Tylose CB30000) (administration volume: 10 ml/kg body weight).
In the morning of day 7, 14, and 28, blood was taken from the retroorbital venous plexus from fasted anaesthetized animals. From each animal, 1 ml of blood was collected with EDTA as anticoagulant. The samples were centrifuged for generation of plasma. All plasma samples were covered with a N2 atmosphere and then stored at −80° C. until analysis.
For mass spectrometry-based metabolite profiling analyses plasma samples were extracted and a polar and a non-polar (lipid) fraction was obtained. For GC-MS analysis, the non-polar fraction was treated with methanol under acidic conditions to yield the fatty acid methyl esters. Both fractions were further derivatized with O-methyl-hydroxyamine hydrochloride and pyridine to convert Oxo-groups to O-methyloximes and subsequently with a silylating agent before analysis.
Following comprehensive analytical validation steps, the data for each analyte were normalized against data from pool samples. These samples were run in parallel through the whole process to account for process variability. The significance of treatment group values specific for sex, treatment duration and metabolite was determined by comparing means of the treated groups to the means of the respective untreated control groups using WELCH-test and quantified with treatment ratios versus control and p-values.

C. elegans = conditions: in vivo; cited from earlier work

SMILES: N=C(N)NN [Aminoguanidine, aminoguanidine]
- Scavenging of glyoxylate, diverting it from oxalate synthesis (glyoxylate [1]): demonstrated to scavenge glyoxylate
- Order of effectiveness for glyoxal trapping, amine-containing drugs [2]: aminoguanidine>>pyridoxamine>metformin

SMILES: O=CC(=O)O [Glyoxylate, glyoxylate]
- Effect on native/endogenous glyoxylate levels in C. elegans (glyoxylate [3]): significant increase of endogenous glyoxylate
- Ratio of glyoxylate concentrations in C. elegans, treatment/control (glyoxylate [3]): 1.81

SMILES: CN(C)C(=N)N=C(N)N [Metformin hydrochloride]
- Ratio treatment/control, plasma glyoxylate (glyoxylate [4]; High Dose 1 g/kg body weight, female rats, day 7 (f7)): 0.82
- Ratio treatment/control, plasma glyoxylate (glyoxylate [4]; High Dose 1 g/kg body weight, female rats, day 14 (f14)): 0.58
- Ratio treatment/control, plasma glyoxylate (glyoxylate [4]; High Dose 1 g/kg body weight, female rats, day 28 (f28)): 0.52
- Ratio treatment/control, plasma glyoxylate (glyoxylate [4]; High Dose 1 g/kg body weight, male rats, day 7 (m7)): 0.22
- Ratio treatment/control, plasma glyoxylate (glyoxylate [4]; High Dose 1 g/kg body weight, male rats, day 14 (m14)): 0.29
- Ratio treatment/control, plasma glyoxylate (glyoxylate [4]; High Dose 1 g/kg body weight, male rats, day 28 (m28)): 0.58
- Ratio treatment/control, plasma glyoxylate (glyoxylate [4]; Low Dose 0.2 g/kg body weight, female rats, day 7 (f7)): 1.01
- Ratio treatment/control, plasma glyoxylate (glyoxylate [4]; Low Dose 0.2 g/kg body weight, female rats, day 14 (f14)): 0.72
- Ratio treatment/control, plasma glyoxylate (glyoxylate [4]; Low Dose 0.2 g/kg body weight, female rats, day 28 (f28)): 0.64
- Ratio treatment/control, plasma glyoxylate (glyoxylate [4]; Low Dose 0.2 g/kg body weight, male rats, day 7 (m7)): 0.59
- Ratio treatment/control, plasma glyoxylate (glyoxylate [4]; Low Dose 0.2 g/kg body weight, male rats, day 14 (m14)): 0.65
- Ratio treatment/control, plasma glyoxylate (glyoxylate [4]; Low Dose 0.2 g/kg body weight, male rats, day 28 (m28)): 0.44

SMILES: CN(C)C(=N)N=C(N)N [Metformin, metformin]
- Effect on glyoxylate concentrations in a rat model system (glyoxylate [4]; summary of Table 2): strongly reducing glyoxylate concentrations
- Effect on glyoxylate-induced increase of endogenous glyoxylate in C. elegans (glyoxylate [3]; 50 mM metformin simultaneously to treatment with 20 mM glyoxylate): restored the native glyoxylate level
- Effect on native/endogenous glyoxylate levels in C. elegans (glyoxylate [3]): significantly decreased native glyoxylate levels
- Ratio of glyoxylate concentrations in C. elegans, treatment/control (glyoxylate [3]): 0.88
- Order of effectiveness for glyoxal trapping, amine-containing drugs [2]: aminoguanidine>>pyridoxamine>metformin
- Effect on lifespan in C. elegans (C. elegans): promote lifespan in C. elegans

SMILES: CC(=O)N[C@@H](CS)C(=O)O [N-acetyl-cysteine]
- Order of effectiveness for glyoxal trapping, thiol-containing drugs [2]: penicillamine>cysteine>N-acetyl-cysteine

SMILES: N[C@@H](CS)C(=O)O [cysteine]
- Order of effectiveness for glyoxal trapping, thiol-containing drugs [2]: penicillamine>cysteine>N-acetyl-cysteine

SMILES: CC(C)(S)[C@@H](N)C(=O)O [penicillamine]
- Order of effectiveness for glyoxal trapping, thiol-containing drugs [2]: penicillamine>cysteine>N-acetyl-cysteine
